Tests used:
C3A hepatocyte cells = assay: ACTIVTox LDH release assay; type: cell-based
Procedure: Compounds A, I, H, and F were tested by Stem Cell Innovations, Inc. (Houston, TX) in their ACTIVTox® Human Liver Cell-based assays (using C3A hepatocyte cells). Specifically, the compounds were tested in the LDH release assay, which determines the release of Lactate DeHydrogenase (an indicator of cell death) at various concentrations of test compound.
A concentration of 100 µM of test compound is a much higher level of exposure to liver cells than would ever be expected under physiological conditions. Therefore, using 100 μM as a standard test concentration (for comparative purposes), the ratio of the absorbance (which measures the level of LDH release) resulting from the presence of the test compound versus the negative control is a value known as the “average (or mean) fold control” (Average Fold Control=Average of Absorbance/Average of Negative Control).

rats = assay: s.c. MET test, rats p.o.; type: in vivo; settings: Rattus norvegicus, p.o.
CYP-450 2D6 = CYP-450 2D6 (Homo sapiens, UniProt P10635); assay: In vitro human CYP-450 study, 2D6; type: in vitro ADME; settings: human enzyme
From the text: On the other hand, it is an inhibitor for 2C19, 2D6, 2A6 and 2C9.

SMN2 promoter = SMN2 promoter β-lactamase reporter assay in NSC34 motor neuron-like cells; type: cell-based
Procedure: FIG. 30 illustrates a screen for SMN2 expression of a number of compounds described herein.
SMN2 promoter activity was measured using NSC34 motor neuron-like cells stably transfected with a β-lactamase (BLA) reporter gene under the control of a 3.4-kilobase fragment of the SMN2 promoter. D156844 was used as a positive control for this assay.

Chain of CYP-450 2D6 (P10635 whole entry): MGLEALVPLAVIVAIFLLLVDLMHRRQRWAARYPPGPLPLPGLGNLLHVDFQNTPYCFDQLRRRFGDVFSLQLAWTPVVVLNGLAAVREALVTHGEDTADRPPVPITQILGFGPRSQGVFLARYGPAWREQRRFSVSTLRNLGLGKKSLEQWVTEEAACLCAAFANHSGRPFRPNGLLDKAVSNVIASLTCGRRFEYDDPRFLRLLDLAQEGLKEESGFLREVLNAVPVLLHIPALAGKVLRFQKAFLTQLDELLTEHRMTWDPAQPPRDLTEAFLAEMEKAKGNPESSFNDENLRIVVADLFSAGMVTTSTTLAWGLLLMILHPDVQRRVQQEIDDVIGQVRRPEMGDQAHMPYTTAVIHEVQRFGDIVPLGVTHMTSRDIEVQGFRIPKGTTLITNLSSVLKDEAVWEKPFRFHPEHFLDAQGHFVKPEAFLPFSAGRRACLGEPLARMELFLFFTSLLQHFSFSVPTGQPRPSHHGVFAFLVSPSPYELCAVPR

Structure (SMILES) | LDH release, mean fold control (C3A hepatocyte cells; at 100 μM, C3A hepatocyte cells, value below 1.75 = no cyto- or hepatotoxic activity) | cyto- or hepatotoxicity, ACTIVTox data (C3A hepatocyte cells; at physiologically relevant concentrations (i.e., <100 µM)) | ED50 (rats) | inhibition of CYP-450 2D6 (CYP-450 2D6) | SMN2 promoter assay, particularly strong hits (SMN2 promoter; NSC34 BLA reporter cells) | Promoter (SMN2 promoter test, summary YES/NO) (SMN2 promoter; Table 13 summary) | SMN2 promoter activity (SMN2 promoter; treatment for 19 hours at a concentration of 1 μM)
CC(CC(N)=O)c1ccc(OC(F)(F)F)cc1 (racemic) [Compound H, 3-[4-(trifluoromethoxy)-phenyl]butyramide] | 1.32 | not cyto- or hepatotoxic | 88.1 mg/kg | inhibitor |  |  | 
C[C@H](CC(N)=O)c1ccc(OC(F)(F)F)cc1 (single isomer, unassigned) [Compound BX, R-(−)-3-(4-Trifluoromethoxy-phenyl)butyramide] |  |  |  |  | Particularly strong hits | YES | increased SMN2 promoter activity

— patent US12486218B2, “Compounds advantageous in the treatment of central nervous system diseases and disorders” (AurimMed Pharma, Inc., priority 2008, dated 2025)
